Molecular target: T1, NR2B receptor (Rattus norvegicus, UniProt P35439+Q00960)
T1 construct: NMDA, Polyamine source: Wistar Rat cerebral cortex; from tissue; host or cells: Wistar rat cerebral cortex
Assay: In vitro affinity measurement, [^3H]Ifenprodil radioligand binding (NMDA, Polyamine)
Details: Wistar Rat cerebral cortex; ligand [^3H]Ifenprodil; 2 hours at 4° C.; six concentrations tested in duplicate

T1 sequence (Q00960 27-1482, other chains not shown): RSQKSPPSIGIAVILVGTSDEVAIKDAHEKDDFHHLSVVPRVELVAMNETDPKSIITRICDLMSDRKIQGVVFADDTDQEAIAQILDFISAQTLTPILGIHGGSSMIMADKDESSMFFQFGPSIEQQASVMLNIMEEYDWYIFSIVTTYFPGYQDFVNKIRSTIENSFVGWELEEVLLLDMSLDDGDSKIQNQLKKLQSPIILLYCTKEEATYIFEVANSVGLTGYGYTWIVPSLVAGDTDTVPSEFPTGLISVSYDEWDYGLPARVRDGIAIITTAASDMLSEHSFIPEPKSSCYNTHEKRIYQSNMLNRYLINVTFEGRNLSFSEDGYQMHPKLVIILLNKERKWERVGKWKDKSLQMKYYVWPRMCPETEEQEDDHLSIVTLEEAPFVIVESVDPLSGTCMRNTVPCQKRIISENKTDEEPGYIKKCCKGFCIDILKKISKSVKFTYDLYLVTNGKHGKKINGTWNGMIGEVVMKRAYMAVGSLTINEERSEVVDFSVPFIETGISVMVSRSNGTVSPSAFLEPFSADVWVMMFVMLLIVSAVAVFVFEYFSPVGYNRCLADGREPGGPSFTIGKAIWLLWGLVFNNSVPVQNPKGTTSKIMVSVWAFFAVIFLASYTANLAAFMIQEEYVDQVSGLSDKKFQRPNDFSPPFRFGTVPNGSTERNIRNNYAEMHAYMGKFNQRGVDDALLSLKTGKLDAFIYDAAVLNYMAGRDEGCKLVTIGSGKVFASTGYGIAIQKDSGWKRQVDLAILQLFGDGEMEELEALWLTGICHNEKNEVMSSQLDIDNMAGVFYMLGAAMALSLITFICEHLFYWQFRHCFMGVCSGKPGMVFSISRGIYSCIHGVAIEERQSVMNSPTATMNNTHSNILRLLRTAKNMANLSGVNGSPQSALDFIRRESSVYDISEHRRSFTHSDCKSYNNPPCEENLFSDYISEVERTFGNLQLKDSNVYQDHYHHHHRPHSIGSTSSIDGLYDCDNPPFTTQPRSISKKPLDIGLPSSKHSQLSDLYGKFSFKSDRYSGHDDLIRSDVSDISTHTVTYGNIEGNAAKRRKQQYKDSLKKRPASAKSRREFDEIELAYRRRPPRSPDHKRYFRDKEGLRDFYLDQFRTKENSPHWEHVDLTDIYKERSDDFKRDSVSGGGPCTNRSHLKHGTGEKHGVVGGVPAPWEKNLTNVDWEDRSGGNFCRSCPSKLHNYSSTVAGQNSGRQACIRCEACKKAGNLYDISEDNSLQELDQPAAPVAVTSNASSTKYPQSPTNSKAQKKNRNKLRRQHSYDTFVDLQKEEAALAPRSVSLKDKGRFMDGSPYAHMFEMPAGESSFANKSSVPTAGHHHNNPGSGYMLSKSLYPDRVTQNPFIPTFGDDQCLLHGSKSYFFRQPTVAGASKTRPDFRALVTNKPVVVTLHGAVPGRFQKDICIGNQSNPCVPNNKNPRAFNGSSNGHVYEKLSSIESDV

Structure (SMILES) | Ki [nM]
N=C(NCc1cc(Cl)cc(OCCF)c1)c1ccc(OC(F)(F)F)cc1 [EA15, N-(3-(2-fluoroethoxy)-5-chlorobenzyl)-4-trifluoromethoxyphenyl amidine] | < 11
COc1cc(CNC(=N)c2ccc(OC(F)(F)F)cc2)c(OC)cc1Cl [EA8, N-(2,5-dimethoxy-4-chlorobenzyl)-4-trifluoromethoxyphenyl amidine] | < 11
COc1cc(Cl)cc(CNC(=N)c2ccc(OC(F)(F)F)cc2)c1 [EA11, N-(3-methoxy-5-chlorobenzyl)-4-trifluoromethoxyphenyl amidine] | < 11
COc1cccc(OC)c1CNC(=N)c1ccc(OC(F)(F)F)cc1 [EA6, N-(2,6-dimethoxybenzyl)-4-trifluoromethoxyphenyl amidine] | < 2
COc1ccccc1CNC(=N)c1ccc(I)cc1 [EA12, N-(2-methoxybenzyl)-4-iodophenyl amidine] | < 11
COc1ccc(Br)cc1CNC(=N)c1ccc(OC(F)(F)F)cc1 [EA10, N-(2-methoxy-5-bromobenzyl)-4-trifluoromethoxyphenyl amidine] | < 2
COc1ccc(OC)c(CNC(=N)c2ccc(OC(F)(F)F)cc2)c1 [EA5, N-(2,5-dimethoxybenzyl)-4-trifluoromethoxyphenyl amidine] | < 11
COc1ccc(Cl)cc1CNC(=N)c1ccc(OC(F)(F)F)cc1 [EA9, N-(2-methoxy-5-chlorobenzyl)-4-trifluoromethoxyphenyl amidine] | < 2
N=C(NCc1cccc(Cl)c1)c1ccc(I)cc1 [EA13, N-(3-chlorobenzyl)-4-iodophenyl amidine] | < 11
N=C(NCc1cc(Br)ccc1OCCF)c1ccc(OC(F)(F)F)cc1 [EA16] | < 11
N=C(NCc1cc(Cl)cc(Cl)c1)c1ccc(I)cc1 [EA14, N-(3,5-dichlorobenzyl)-4-iodophenyl amidine] | < 2
COc1cc(CNC(=N)c2ccc(OC(F)(F)F)cc2)cc(OC)c1 [EA4, N-(3,5-dimethoxybenzyl)-4-trifluoromethoxyphenyl amidine] | < 11
COc1cccc(CNC(=N)c2ccc(OC(F)(F)F)cc2)c1OC [EA7, N-(2,3-dimethoxybenzyl)-4-trifluoromethoxyphenyl amidine] | > 100

From patent US7799947B2, “In vivo imaging compounds” (Hammersmith Imanet Limited, priority 2005, dated 2010)
